≈ marks a conversion by molar mass, not a printed value. Where two headings read alike, the source gives them in different places.
Key:
[1] = target: T1, xanthine oxidase (Homo sapiens, UniProt P47989); test: Enzyme kinetic study (Lineweaver–Burk plot); conditions: for Inhibition type on xanthine oxidase: both substrates, hypoxanthine and xanthine
[2] = target: xanthine oxidase (EC 1.1.3.22) (Homo sapiens, UniProt P47989); test: biochemical; format: biochemical; conditions: for IC50: read-out: IC50 against xanthine oxidase (converted)
Procedure: Xanthine oxidase inhibitory activity of specimens was evaluated by using in vitro spectrophotometric analysis. Both hypoxanthine and xanthine were used as the substrate in the assay, respectively. We added 117 µL of potassium phosphate buffer (50 mM, pH 7.8), 3 µL of specimen solution, and 60 µL of 0.025 unit/mL xanthine oxidase (EC 1.1.3.22) and mixed well in a 96-well microplate, and the mixture was incubated for 10 min at room temperature (25 °C). We added 100 µL of 0.15 mM substrate (hypoxanthine/xanthine) into the well, and the solution was incubated in the dark for 30 min at 37 °C. Then, 20 µL of 1 N HCl was added to stop the reaction. Absorbance at 290 nm of each well was measured using an ELISA (enzyme-linked immunosorbent assay) microplate reader (SPECTROstar Nano, BMG LABTECH, Offenburg, Germany) after incubation. […] All the experiments were performed in triplicate. Inhibition of the xanthine oxidase inhibitory activity was determined by the following formula: Inhibition (%) = [(Acontrol − Acontrol’s blank) − (Asample − Asample’s blank)/(Acontrol − Acontrol’s blank)] × 100. The IC50, half maximal inhibitory concentration, was calculated from the concentration-response curve of the specimen.

[3] = target: T1, xanthine oxidase; conditions: cited from earlier work
[4] = target: T1, xanthine oxidase; conditions: cited from earlier work; remark: listed apart in the source
[5] = Hypoxanthine as the substrate, read-out: IC50 xanthine oxidase inhibition (converted)

Chain of xanthine oxidase (EC 1.1.3.22) (P47989 whole entry, species assumed): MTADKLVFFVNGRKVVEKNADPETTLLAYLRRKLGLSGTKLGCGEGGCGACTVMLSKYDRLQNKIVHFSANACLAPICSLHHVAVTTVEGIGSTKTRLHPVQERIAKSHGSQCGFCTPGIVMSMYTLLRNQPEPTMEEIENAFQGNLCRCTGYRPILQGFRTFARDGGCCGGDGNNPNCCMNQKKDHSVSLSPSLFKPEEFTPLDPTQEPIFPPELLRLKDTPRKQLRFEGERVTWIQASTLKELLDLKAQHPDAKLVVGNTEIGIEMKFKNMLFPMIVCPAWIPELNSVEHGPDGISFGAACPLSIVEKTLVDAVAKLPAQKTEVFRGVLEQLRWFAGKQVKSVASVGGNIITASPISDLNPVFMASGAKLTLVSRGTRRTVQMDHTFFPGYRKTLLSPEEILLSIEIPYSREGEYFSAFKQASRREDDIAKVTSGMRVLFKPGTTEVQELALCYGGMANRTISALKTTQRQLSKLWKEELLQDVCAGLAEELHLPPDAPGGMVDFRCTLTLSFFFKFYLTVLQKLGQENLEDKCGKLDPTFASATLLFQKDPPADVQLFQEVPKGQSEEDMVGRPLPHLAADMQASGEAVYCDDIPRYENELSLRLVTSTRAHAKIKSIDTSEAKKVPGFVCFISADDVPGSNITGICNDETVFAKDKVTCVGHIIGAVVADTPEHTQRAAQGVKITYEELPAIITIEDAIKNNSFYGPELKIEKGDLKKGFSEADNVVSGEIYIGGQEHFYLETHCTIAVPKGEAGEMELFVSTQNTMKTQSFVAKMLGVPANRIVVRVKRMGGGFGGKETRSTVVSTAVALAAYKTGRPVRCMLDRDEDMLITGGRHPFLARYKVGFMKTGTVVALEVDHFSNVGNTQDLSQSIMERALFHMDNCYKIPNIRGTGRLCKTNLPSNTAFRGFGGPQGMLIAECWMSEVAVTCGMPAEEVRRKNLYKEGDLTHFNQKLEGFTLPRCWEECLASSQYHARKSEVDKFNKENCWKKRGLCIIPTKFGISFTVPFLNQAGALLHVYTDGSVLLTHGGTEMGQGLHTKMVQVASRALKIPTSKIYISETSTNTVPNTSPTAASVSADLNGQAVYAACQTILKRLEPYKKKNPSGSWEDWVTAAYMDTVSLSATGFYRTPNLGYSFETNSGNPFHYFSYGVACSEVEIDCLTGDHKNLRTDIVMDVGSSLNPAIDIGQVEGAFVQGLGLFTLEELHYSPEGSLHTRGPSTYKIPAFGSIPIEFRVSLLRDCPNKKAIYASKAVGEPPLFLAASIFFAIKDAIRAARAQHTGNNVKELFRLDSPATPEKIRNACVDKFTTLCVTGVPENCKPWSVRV
T1 sequence (P47989 whole entry, species assumed): as above

Q: Which results are given for C=C(C)[C@H]1CC=C(C)CC1 [Limonene, limonene]?
A: Inhibition Type ([1]; Hypoxanthine as the substrate): Mixed; Vmax ([1]; Hypoxanthine substrate, inhibitor 40 μg/mL): 0.00027; Vmax ([1]; Hypoxanthine substrate, inhibitor 50 μg/mL): 0.00025; Vmax ([1]; Hypoxanthine substrate, inhibitor 100 μg/mL): 0.00024; Vmax ([1]; Hypoxanthine substrate, inhibitor 200 μg/mL): 0.00023; Inhibition Type ([1]; Xanthine as the substrate): Mixed; Vmax ([1]; Xanthine substrate, inhibitor 40 μg/mL): 0.00029; Vmax ([1]; Xanthine substrate, inhibitor 50 μg/mL): 0.00026; Vmax ([1]; Xanthine substrate, inhibitor 100 μg/mL): 0.00022; Vmax ([1]; Xanthine substrate, inhibitor 200 μg/mL): 0.0002; Inhibition type on xanthine oxidase [1]: mixed-type inhibitor; IC50 against xanthine oxidase ([2]; Hypoxanthine as the substrate): 37.69 ± 2.52 µg/mL (≈ 277 µM); IC50 ([2]; Hypoxanthine as the substrate): 280 µM; IC50 against xanthine oxidase ([2]; Xanthine as the substrate): 48.04 ± 0.78 µg/mL (≈ 353 µM); IC50 ([2]; Xanthine as the substrate): 350 µM

Q: With Oc1ncnc2[nH]ncc12 [Allopurinol, reference compound] as the compound, how does the “Inhibition Type” value ([1]; Hypoxanthine as the substrate) read?
A: Competitive

Q: What about the Vmax ([1]; Hypoxanthine substrate, inhibitor 0.313 μg/mL) of the same compound?
A: 0.00025

Q: What about the Vmax ([1]; Hypoxanthine substrate, inhibitor 0.625 μg/mL) of the same compound?
A: 0.00024

Q: And the Vmax ([1]; Hypoxanthine substrate, inhibitor 1.250 μg/mL)?
A: 0.00024

Q: And the Vmax ([1]; Hypoxanthine substrate, inhibitor 2.500 μg/mL)?
A: 0.00024

Q: And the “Inhibition Type” value ([1]; Xanthine as the substrate)?
A: Competitive

Q: What about the Vmax ([1]; Xanthine substrate, inhibitor 0.313 μg/mL) of the same compound?
A: 0.00026

Q: What about the Vmax ([1]; Xanthine substrate, inhibitor 0.625 μg/mL) of the same compound?
A: 0.00026

Q: What about the Vmax ([1]; Xanthine substrate, inhibitor 1.250 μg/mL) of the same compound?
A: 0.00025

Q: And the Vmax ([1]; Xanthine substrate, inhibitor 2.500 μg/mL)?
A: 0.00026

Q: What about the “Inhibition type on xanthine oxidase” value [1] of the same compound?
A: competitive

Q: What about the “Inhibition type against xanthine oxidase” value [3] of the same compound?
A: competitive-type inhibition

Q: With O=P(O)(O)O[C@H]1[C@H](OP(=O)(O)O)[C@@H](OP(=O)(O)O)[C@H](OP(=O)(O)O)[C@@H](OP(=O)(O)O)[C@H]1OP(=O)(O)O [phytic acid] as the compound, how does the IC50 ([4]; Xanthine as the substrate, read-out: IC50 (inhibition of the formation of uric acid)) read?
A: ~30000 µM

Q: With O=c1c(O)c(-c2ccc(O)c(O)c2)oc2cc(O)cc(O)c12 [quercetin] as the compound, how does the “Inhibition type against xanthine oxidase” value [3] read?
A: mixed type

Q: Which IC50 [4, 5] does the source give for O=c1cc(-c2ccc(O)cc2)oc2cc(O)cc(O)c12 [apigenin] here?
A: 130 µM

Q: Which “IC50 xanthine oxidase inhibition” value ([4]; Xanthine as the substrate) does the source give for COC(=O)c1cc(C(=O)O)c[nH]1 [2-metyl ester-1H-pyrrole-4-carboxilyc acid] here?
A: 48.86 µg/mL (≈ 289 µM)

Q: With C[C@@H]1O[C@@H](OC[C@H]2O[C@@H](Oc3c(-c4ccc(O)c(O)c4)oc4cc(O)cc(O)c4c3=O)[C@H](O)[C@@H](O)[C@@H]2O)[C@H](O)[C@H](O)[C@H]1O [rutin] as the compound, how does the IC50 [4, 5] read?
A: 99.9 µM

Q: For CC1=CCC2C(C1)C2(C)C (stereo not shown) [3-Carene, 3-carene], which IC50 ([2]; Hypoxanthine as the substrate) is on record?
A: 810 µM

Q: And the “activity against xanthine oxidase (in words)” value ([2]; Xanthine as the substrate)?
A: did not display activity

From article PMC9609098, “Xanthine Oxidase Inhibitory Activity and Chemical Composition of Pistacia chinensis Leaf Essential Oil” (Pharmaceutics, 2022)
